≈ marks a conversion by molar mass, not a printed value. Calls of active or inactive are those of the source. No cut-off for these calls is given here.

The subject of test [1] is Escherichia coli. Kind of test: Antibacterial activity in NDM-1 producing Escherichia coli infected in BALB/c mouse assessed as decrease in pathological damage in small intestine at 10 mg/kg,SC administration measured after 96 hrs of post-infection by hematoxylin and eosin staining based assay. The format is functional, organism-based.
Test [2] deals with Escherichia coli. Kind of test: Antibacterial activity in NDM-1 producing Escherichia coli infected in BALB/c mouse assessed as reduction of bacterial burden in small intestine at 10 mg/kg,SC administration measured after 96 hrs of post-infection. The format is functional, organism-based.
The subject of test [3] is Escherichia coli. Description: Antibacterial activity against NDM-1 producing Escherichia coli assessed as inhibition of bacterial growth at 4 ug/ml incubated for 5 hrs by time-kill assay. The format is functional, organism-based. The following applies: dose 4.0 µg/ml.
Test [4] deals with Escherichia coli. Kind of test: Antibacterial activity in NDM-1 producing Escherichia coli infected in BALB/c mouse assessed as decrease in pathological damage in liver at 10 mg/kg,SC administration measured after 96 hrs of post-infection by hematoxylin and eosin staining based assay. In kind it is functional, organism-based.
For test [5], the system named is Escherichia coli. Kind of test: Antibacterial activity in NDM-1 producing Escherichia coli infected in BALB/c mouse assessed as decrease in pathological damage in spleen at 10 mg/kg,SC administration measured after 96 hrs of post-infection by hematoxylin and eosin staining based assay. The format is functional, organism-based.
Test [6] has as its system Escherichia coli. Kind of test: Antibacterial activity in NDM-1 producing Escherichia coli infected in BALB/c mouse assessed as increase in animal survival rate at 10 mg/kg,SC administrated upto 120 hrs for every 12 hrs interval. In kind it is functional.
Test [7] relates to Escherichia coli. Kind of test: Antibacterial activity in NDM-1 producing Escherichia coli infected in BALB/c mouse assessed as reduction of bacterial burden in liver at 10 mg/kg,SC administration measured after 96 hrs of post-infection. In kind it is functional, organism-based.
For test [8], the system named is Escherichia coli. Description: Antibacterial activity in NDM-1 producing Escherichia coli infected in BALB/c mouse assessed as reduction of bacterial burden in spleen at 10 mg/kg,SC administration measured after 96 hrs of post-infection. The format is functional, organism-based.
The subject of test [9] is Escherichia coli. Kind of test: Antibacterial activity against NDM-1 producing Escherichia coli assessed as inhibition of bacterial growth incubated overnight by broth microdilution assay. In kind it is functional.
Test [10] concerns the target Beta-lactamase NDM-1 (Escherichia coli) (UniProt E5KIY2). Description: Inhibition of Escherichia coli NDM-1 expressed in Escherichia coli BL21 (DE3) using nitrocefin as substrate at 10 ug/ml by microplate reader analysis relative to control. Conditions: dose 10.0 µg/ml.
The subject of test [11] is Escherichia coli. Description: Antibacterial activity in NDM-1 producing Escherichia coli infected in BALB/c mouse assessed as decrease in IL-1beta level at 10 mg/kg,IG administration measured after 96 hrs of post-infection by ELISA. The format is functional, organism-based.
The target in test [12] is Beta-lactamase NDM-1 (Escherichia coli) (UniProt E5KIY2). Description: Binding affinity to Escherichia coli NDM-1 assessed as melting temperature at 64 ug/ml incubated for 18 hrs by CD spectroscopy. Conditions: dose 64.0 µg/ml.
In test [13] the test system is Escherichia coli. Description: Synergistic antibacterial activity in NDM-1 producing Escherichia coli infected in BALB/c mouse assessed as increase in animal survival rate at 10 mg/kg,IG administrated with meropenem by subcutaneous injection upto 120 hrs for every 12 hrs interval. The format is functional.
In test [14] the test system is Escherichia coli. Description: Synergistic antibacterial activity against NDM-1 producing Escherichia coli assessed as inhibition of bacterial growth incubated overnight in presence of meropenem by broth microdilution assay. In kind it is functional. A general note: In broth dilution the organism is exposed to a series of concentrations in liquid medium.
Test [15] concerns Escherichia coli. Kind of test: Antibacterial activity in NDM-1 producing Escherichia coli infected in BALB/c mouse assessed as effect on white blood cell count at 10 mg/kg,IG administration measured after 96 hrs of post-infection. In kind it is functional, organism-based.
The test system of test [16] is Escherichia coli. Kind of test: Synergistic antibacterial activity against NDM-1 producing Escherichia coli assessed as inhibition of bacterial growth by measuring meropenem MIC incubated overnight in presence of meropenem by broth microdilution assay. The format is functional.
The subject of test [17] is Escherichia coli. Kind of test: Antibacterial activity in NDM-1 producing Escherichia coli infected in BALB/c mouse assessed as decrease in pathological damage in liver at 10 mg/kg,IG administration measured after 96 hrs of post-infection by hematoxylin and eosin staining based assay. The format is functional, organism-based.
Test [18] concerns Escherichia coli. Description: Antibacterial activity against NDM-1 producing Escherichia coli assessed as inhibition of bacterial growth at 64 ug/ml incubated for 5 hrs by time-kill assay. In kind it is functional, organism-based. The following applies: dose 64.0 µg/ml.
In test [19] the target is Beta-lactamase NDM-1 (Escherichia coli) (UniProt E5KIY2). Kind of test: Inhibition of Escherichia coli recombinant wild type NDM-1 expressed in Escherichia coli BL21 (DE3) incubated for 10 mins.
For test [20], the system named is Beta-lactamase NDM-1 (Escherichia coli), E5KIY2 [UNDEFINED MUTATION]. Kind of test: Inhibition of Escherichia coli recombinant NDM-1 mutant expressed in Escherichia coli BL21 (DE3) at 4 to 128 ug/ml incubated for 10 mins. The following applies: dose 4-128 µg/ml.
Test [21] addresses Beta-lactamase NDM-1 (Escherichia coli) (UniProt E5KIY2). Kind of test: Inhibition of Escherichia coli recombinant wild type NDM-1 expressed in Escherichia coli BL21 (DE3) at 4 to 128 ug/ml incubated for 10 mins relative to control. Conditions: dose 4-128 µg/ml.
Test [22] has as its system Escherichia coli. Description: Antibacterial activity in NDM-1 producing Escherichia coli infected in BALB/c mouse assessed as decrease in IFN-gamma level at 10 mg/kg,IG administration measured after 96 hrs of post-infection by ELISA. In kind it is functional, organism-based. Background: An ELISA detects its analyte on a solid surface through an enzyme-linked reagent.

Test [23] relates to Escherichia coli. Description: Synergistic antibacterial activity against NDM-1 producing Escherichia coli assessed as fractional inhibitory concentration index in presence of meropenem by checkerboard broth microdilution assay. The format is functional.
The test system of test [24] is Escherichia coli. Description: Antibacterial activity in NDM-1 producing Escherichia coli infected in BALB/c mouse assessed as decrease in pathological damage in spleen at 10 mg/kg,IG administration measured after 96 hrs of post-infection by hematoxylin and eosin staining based assay. In kind it is functional, organism-based.
Test [25] relates to Escherichia coli. Kind of test: Antibacterial activity against NDM-1 producing Escherichia coli assessed as inhibition of bacterial growth at 2 to 512 ug/ml incubated overnight by broth microdilution assay. In kind it is functional, organism-based. The following applies: dose 2-512 µg/ml.
The target of test [26] is T1, Beta-lactamase NDM-1 (Escherichia coli, UniProt E5KIY2). Kind of test: Inhibition of Escherichia coli NDM-1 expressed in Escherichia coli BL21 (DE3) using nitrocefin as substrate by microplate reader analysis.
Test [27] has as its target Beta-lactamase NDM-1 (Escherichia coli) (UniProt E5KIY2). Kind of test: Inhibition of Escherichia coli NDM-1 assessed as effect on NDM-1 protein expression at 64 ug/ml incubated for 12 hrs by Western blotting analysis. Conditions: dose 64.0 µg/ml.
Test [28] has the same target. Description: Binding affinity to Escherichia coli NDM-1 by bio-layer interferometry analysis. Background: In BLI a coated tip is dipped into the sample, and binding shifts an interference pattern.
The subject of test [29] is Escherichia coli. Kind of test: Antibacterial activity in NDM-1 producing Escherichia coli infected in BALB/c mouse assessed as increase in animal survival rate at 10 mg/kg,IG administrated upto 120 hrs for every 12 hrs interval. The format is functional. Conditions: po.
Test [30] deals with Escherichia coli. Kind of test: Antibacterial activity in NDM-1 producing Escherichia coli infected in BALB/c mouse assessed as decrease in TNF-alpha level at 10 mg/kg,IG administration measured after 96 hrs of post-infection by ELISA. In kind it is functional, organism-based.
The target of test [31] is T1, Beta-lactamase NDM-1. Kind of test: Binding affinity to Escherichia coli NDM-1 assessed as equilibrium dissociation constant measured for 60 sec by bio-layer interferometry analysis.
Test [32] concerns Escherichia coli. Kind of test: Antibacterial activity in NDM-1 producing Escherichia coli infected in BALB/c mouse assessed as decrease in pathological damage in small intestine at 10 mg/kg,IG administration measured after 96 hrs of post-infection by hematoxylin and eosin staining based assay. The format is functional, organism-based.
Test [33] addresses Metallo-beta-lactamase type 2 (Bacteria, UniProt C7C422). Kind of test: Inhibition of Metallo-beta-lactamase NDM-1 (unknown origin) using nitrocefin as substrate incubated for 5 to 10 mins by spectramax reader analysis.

For the molecule `C[C@@H](O)[C@H]1C(=O)N2C(C(=O)O)=C(S[C@@H]3CN[C@H](C(=O)N(C)C)C3)[C@H](C)[C@H]12` [MEROPENEM], the result in [1], in [2], in test [4], in [5], in test [7] and in test [8] was Active. Further, the result in test [3] was inactive. Further, the survival at 10 mg/kg in [6] amounted to 40%. Moreover, in [9], the MIC – broadly, the least concentration at which growth counts as inhibited – amounted to 64 µg/mL (≈ 167 µM).

With `COc1cccc(-c2ccc(NC(=O)C3=C(C(=O)O)CCC3)c(F)c2)c1` [VIDOFLUDIMUS], the figures for the inhibition in test [10], in [19] and in test [21] were 93.3%, “Dose-Dependent Effect” and 14.9%, respectively. For the same molecule, the result in test [11], in test [15], in test [17], in test [18], in [22] and in test [24] was inactive. In addition, the outcome in test [25], in test [30] and in test [32] was inactive. In test [12], the Tm was 58 °C. In addition, the results for the survival at 10 mg/kg in test [13] and in [29] were 90% and 10%, respectively. Besides, the MIC in [14] came out at 64 µg/mL; in [16], 4 µg/mL; in [9], 1020 µg/mL (≈ 2880 µM). Moreover, the inhibition entry in test [20] and in test [27] was “inactive” in each case. In addition, in test [23], the “fractional inhibitory concentration index (FICI)” value worked out at 0.125. It took 13.8 µM to reach half-maximal inhibition in test [26] (IC50). For the same molecule, in test [28], the Activity entry was “Dose-Dependent Effect”. Besides, in test [31], the Kd (in general, the equilibrium constant for the complex coming apart) amounted to 0.337 µM.

In the case of `N[C@@H](CN[C@@H](CN[C@@H](CC(=O)O)C(=O)O)C(=O)O)C(=O)O`, half-maximal inhibition in test [33] (IC50) was put at 4.1 µM.

The values above are taken from ChEMBL document CHEMBL5385903, “The activity and mechanism of vidofludimus as a potent enzyme inhibitor against NDM-1-positive E. coli” (Eur J Med Chem, 2023).
